# Laboratory results published in patent US20260038709A1 (priority 2020, published 2026).
# Like-named read-outs stand apart in the source and are kept apart here.
# Tests used:
# [1] = Boiling point; format: physicochemical
# [2] = Vapor pressure; format: physicochemical; details: 20° C.
# [3] = in vivo; cited from earlier work
# [4] = Explosion limits of CF3OCFCF2 / CO2 / O2 (triangular diagram)
# Text: In this case, the straight line AB may be a straight line connecting point A and point B, the straight line BC may be a straight line connecting point B and point C, the straight line CA may be a straight line connecting point C and point A, and in the point A, (x, y, z) may be (50, 0, 50), in the point B, (x, y, z) may be (5.1, 0, 94.9), and in the point C, (x, y, z) may be (8.2, 80, 11.8). Unlike the case above, when (x, y, z) is present in the triangle ABC (explosion triangle) composed of the points A, B, and C, there may be an explosion hazard due to flammability.
# In FIG. 7, the explosion limits indicate the explosion limit line, and is a line connecting the explosion limit points (filled square points). On the other hand, no ignition (hollow rectangle points) indicates a non-ignition point.
# In addition, point A in the triangular diagram of FIG. 7 represents upper flammability limit (UFL), and when point A is connected to point C, which is an end point on the explosion limit line, a straight line AC, which is an expected explosion limit (expected line), is formed. […] Meanwhile, the ICR line on the triangle diagram is tangent to the explosion triangle passing through 100% of O2, and the MXC value is 9.3% (C3F6O in CO2).
# [5] = Reactivity test with electrodes during dielectric strength test; details: room temperature, 1 atm, insulation test chamber
# Text: In this case, the reactivity test was to determine a reaction with electrodes upon testing dielectric strength for each mixing ratio of the insulating gases in an enclosed space where no external gas was not allowed to enter (insulation test chamber), at R.T. (room temperature), and at a standard atmospheric pressure of 1 atm. In this case, materials of a sphere electrode are CuCr and Wcu, and materials of a plane electrode are CuCr and SUS.
# [6] = Acute inhalation toxicity (LC50 4 h) of mixed gas based on KS B ISO 10298: 2012; details: mixed gas of CF3OCFCF2 and CO2, mixing ratio mol %
# Protocol: The mixed gas of the present invention may have a GWP of 1 or less, 0.9 or less, or 0.85 or less. In addition, the mixed gas of the present invention may have a GWP of 0.29 to 1, 0.29 to 0.9, or 0.29 to 0.85. […] In this case, a method for calculating GWP was based on Regulation (EU) NO 517/2014, and LC50, which represents lethal concentration 50% upon inhalation for 4 hours, was based one KS B ISO 10298: 2012.
# [7] = Lower flammability limit (LFL) calculation, KS B ISO 10156: 2017 combustible gas standard; details: mixed gas of CF3OCFCF2 and CO2, by mixing ratio of CF3OCFCF2; calculation results
# Text: Meanwhile, insulating gases used in electric devices that insulate electricity or extinguish arc are not supposed to belong to the category of combustible gases.
# The calculation results of the lower flammability limit (LFL) according to the mixing ratio of the mixed gas of CF3OCFCF2 and CO2 are shown in the following table. In this case, the lower flammability limit is a concentration range in which flame propagation may take place when a combustible gas is mixed with air and ignited, expressed in volume concentration (vol %), and refers to the lowest value in this volume concentration.
# [8] = Acute inhalation toxicity (LC50 4 h); format: in vivo; details: inhalation for 4 hours, pure gas
SMILES,Boiling point [1] [°C],Vapor pressure [2] [psia],Acute inhalation toxicity (LC50 4 h) [3],"Ignition ([4]; C3F6O 8.6, CO2 82.5, O2 8.9 mol %)","Ignition ([4]; C3F6O 8.8, CO2 85.0, O2 6.2 mol %)",MXC value ([4]; C3F6O in CO2) [%],"Upper flammability limit (UFL), point A, C3F6O ([4]; CO2 0, O2 50 mol %) [mol %]","Explosion limit (LEL), C3F6O ([4]; CO2 0.0, O2 94.9 mol %) [mol %]","Explosion limit, C3F6O ([4]; CO2 30.0, O2 64.3 mol %) [mol %]","Explosion limit, C3F6O ([4]; CO2 50.0, O2 43.4 mol %) [mol %]","Explosion limit, C3F6O ([4]; CO2 60.0, O2 33.0 mol %) [mol %]","Explosion limit, C3F6O ([4]; CO2 70.0, O2 22.4 mol %) [mol %]","Explosion limit, C3F6O ([4]; CO2 80.0, O2 11.8 mol %, point of tangency of ICR line) [mol %]",Reaction with electrodes [5],LC50 4 h [6],Lower flammability limit (LFL) [7] [vol %],Acute inhalation toxicity (LC50 4 h) [8]
"N#CC(F)(C(F)(F)F)C(F)(F)F [(CF3)2CFCN, heptafluoroisobutyronitrile]",−4.7,36.7,"10,000-15,000 ppmv",–,–,–,–,–,–,–,–,–,–,–,–,–,–
"FC(F)=C(F)OC(F)(F)F [CF3OCFCF2, trifluoromethyl trifluorovinyl ether]",−29,70.3,–,No ignition confirmed at 8.6% C3F6O,No ignition confirmed at 8.8% C3F6O,9.3,50,5.1,5.7,6.6,7.0,7.6,8.2,reacted with electrodes at atmospheric pressure to form a carbon film,"15,000 ppmv",7.5,"10,000-15,000 ppmv"
FS(F)(F)(F)(F)F [SF6],−63.7,334,–,–,–,–,–,–,–,–,–,–,–,–,–,–,"100,000~ ppmv"
